target: T1, F508del (Homo sapiens, UniProt P13569, DEL508-508); assay: Protocol 1: membrane potential optical assay (FLIPR III, voltage sensing dye), identification of potentiator compounds; type: cell-based; settings: Table 3, compounds of Table 1
T1 construct: expressed in transfected cells
How it was run: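 Gating potentiation is read as a membrane-potential fluorescence change (FLIPR III, voltage-sensing dye) after one forskolin addition under a Cl− gradient, with gluconate replacing chloride, pH 7.4. Cells are F508del-expressing NIH3T3 mouse fibroblasts held 24 h at 27 °C and exposed to compound before dye loading.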

T1 sequence (P13569 with tags, fused parts or gaps DEL508-508): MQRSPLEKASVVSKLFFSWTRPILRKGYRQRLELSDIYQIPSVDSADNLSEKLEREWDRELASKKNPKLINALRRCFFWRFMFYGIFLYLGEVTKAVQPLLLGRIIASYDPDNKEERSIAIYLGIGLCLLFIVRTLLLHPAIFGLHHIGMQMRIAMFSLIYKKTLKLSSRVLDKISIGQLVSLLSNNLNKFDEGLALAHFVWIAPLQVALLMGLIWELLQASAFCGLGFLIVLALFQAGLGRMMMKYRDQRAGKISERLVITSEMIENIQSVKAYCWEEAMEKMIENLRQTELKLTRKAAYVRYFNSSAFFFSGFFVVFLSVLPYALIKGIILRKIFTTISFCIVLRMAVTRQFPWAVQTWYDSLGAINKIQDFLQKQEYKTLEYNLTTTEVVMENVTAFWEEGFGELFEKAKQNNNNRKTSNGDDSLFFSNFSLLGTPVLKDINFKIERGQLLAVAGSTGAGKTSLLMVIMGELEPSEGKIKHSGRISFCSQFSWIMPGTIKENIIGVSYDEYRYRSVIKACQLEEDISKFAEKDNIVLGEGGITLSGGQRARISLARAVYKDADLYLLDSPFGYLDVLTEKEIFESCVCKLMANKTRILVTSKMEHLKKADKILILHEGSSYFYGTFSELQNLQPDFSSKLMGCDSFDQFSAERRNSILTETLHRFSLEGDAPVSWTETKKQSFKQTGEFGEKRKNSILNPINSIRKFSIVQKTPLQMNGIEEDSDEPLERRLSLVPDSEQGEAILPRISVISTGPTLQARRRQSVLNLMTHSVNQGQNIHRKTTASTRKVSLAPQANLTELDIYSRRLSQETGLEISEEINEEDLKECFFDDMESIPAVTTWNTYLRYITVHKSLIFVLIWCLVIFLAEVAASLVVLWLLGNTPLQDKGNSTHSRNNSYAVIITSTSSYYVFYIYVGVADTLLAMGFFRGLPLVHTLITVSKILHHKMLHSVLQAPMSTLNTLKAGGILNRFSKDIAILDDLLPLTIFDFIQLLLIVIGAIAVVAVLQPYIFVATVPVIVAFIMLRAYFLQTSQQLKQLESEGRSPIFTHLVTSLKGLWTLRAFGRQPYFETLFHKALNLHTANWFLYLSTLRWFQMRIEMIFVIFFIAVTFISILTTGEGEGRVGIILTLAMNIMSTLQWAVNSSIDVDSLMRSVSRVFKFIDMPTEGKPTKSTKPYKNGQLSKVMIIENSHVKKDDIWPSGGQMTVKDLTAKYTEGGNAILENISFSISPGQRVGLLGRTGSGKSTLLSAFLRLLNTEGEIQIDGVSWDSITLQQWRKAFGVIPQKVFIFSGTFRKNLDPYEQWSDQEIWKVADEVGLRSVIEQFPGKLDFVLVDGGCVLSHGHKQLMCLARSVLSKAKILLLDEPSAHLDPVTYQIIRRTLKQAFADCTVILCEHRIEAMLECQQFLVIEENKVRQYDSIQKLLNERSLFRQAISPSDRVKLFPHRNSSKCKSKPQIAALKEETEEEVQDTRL

| Structure (SMILES) | EC30 |
| --- | --- |
| CC1CN(c2ncccc2C(=O)NS(=O)(=O)c2cccc(Nc3ccc(C(C)(C)C)cc3)n2)C(C)(C)C1 (stereo not shown) [Compound 1756, N—[[6-(4-tert-butylanilino)-2-pyridyl]sulfonyl]-2-(2,2,4-trimethylpyrrolidin-1-yl)pyridine-3-carboxamide] | +++ (“+++” means <3 uM) |
| CC1CN(c2ncccc2C(=O)NS(=O)(=O)c2cccc(Nc3ccc(N(C)C)cc3)n2)C(C)(C)C1 (stereo not shown) [Compound 1757, N—[[6-[4-(dimethylamino)anilino]-2-pyridyl]sulfonyl]-2-(2,2,4-trimethylpyrrolidin-1-yl)pyridine-3-carboxamide] | +++ (“+++” means <3 uM) |
| Cc1cn(-c2ccc(C(=O)NS(=O)(=O)c3cccnc3N)c(N3C[C@@H](C)CC3(C)C)n2)nc1OCC(C)C [Compound 1758, N-[(2-amino-3-pyridyl)sulfonyl]-6-(3-isobutoxy-4-methyl-pyrazol-1-yl)-2-[(4S)-2,2,4-trimethylpyrrolidin-1-yl]pyridine-3-carboxamide] | +++ (“+++” means <3 uM) |
| Cc1cc2c(cc1-c1cnc(N3CC(C)CC3(C)C)c(C(=O)NS(=O)(=O)c3cccc(N)n3)c1)C(C)(C)CCC2(C)C (stereo not shown) [Compound 1759, N-[(6-amino-2-pyridyl)sulfonyl]-5-(1,1,4,4,7-pentamethyltetralin-6-yl)-2-(2,2,4-trimethylpyrrolidin-1-yl)pyridine-3-carboxamide] | +++ (“+++” means <3 uM) |
| CC(C)COc1cnn(-c2ccc(C(=O)NS(=O)(=O)c3ccc[nH]c3=O)c(N3C[C@@H](C)CC3(C)C)n2)c1 [Compound 1760, 6-(4-isobutoxypyrazol-1-yl)-N-[(2-oxo-1H-pyridin-3-yl)sulfonyl]-2-[(4S)-2,2,4-trimethylpyrrolidin-1-yl]pyridine-3-carboxamide] | ++ (“++” means between 3 uM and 10 uM) |
| COc1ccc(Oc2cccc(S(=O)(=O)NC(=O)c3cccnc3N3CC(C)CC3(C)C)n2)cc1OC (stereo not shown) [Compound 1761, N—[[6-(3,4-dimethoxyphenoxy)-2-pyridyl]sulfonyl]-2-(2,2,4-trimethylpyrrolidin-1-yl)pyridine-3-carboxamide] | ++ (“++” means between 3 uM and 10 uM) |
| C[C@@H]1CN(c2nc(-c3ccc(OC(F)(F)F)cc3)ccc2C(=O)NS(=O)(=O)N2CC[C@H](N)C2)C(C)(C)C1 [Compound 1763, N-[(3S)-3-aminopyrrolidin-1-yl]sulfonyl-6-[4-(trifluoromethoxy)phenyl]-2-[(4S)-2,2,4-trimethylpyrrolidin-1-yl]pyridine-3-carboxamide] | +++ (“+++” means <3 uM) |
| CC1CN(c2ncccc2C(=O)NS(=O)(=O)c2cccc(OCC3CCCO3)n2)C(C)(C)C1 (stereo not shown) [Compound 1764, N—[[6-(tetrahydrofuran-2-ylmethoxy)-2-pyridyl]sulfonyl]-2-(2,2,4-trimethylpyrrolidin-1-yl)pyridine-3-carboxamide] | ++ (“++” means between 3 uM and 10 uM) |
| C[C@@H]1CN(c2nc(C(C)(C)C)ccc2C(=O)NS(=O)(=O)c2ccc[nH]c2=O)C(C)(C)C1 [Compound 1765, 6-tert-butyl-N-[(2-oxo-1H-pyridin-3-yl)sulfonyl]-2-[(4S)-2,2,4-trimethylpyrrolidin-1-yl]pyridine-3-carboxamide] | +++ (“+++” means <3 uM) |
| Cc1ccccc1-c1ccc(C(=O)NS(=O)(=O)c2cccnc2N)c(N2C[C@@H](C)CC2(C)C)n1 [Compound 1766, N-[(2-amino-3-pyridyl)sulfonyl]-6-(o-tolyl)-2-[(4S)-2,2,4-trimethylpyrrolidin-1-yl]pyridine-3-carboxamide] | +++ (“+++” means <3 uM) |
| CC1CN(c2ncccc2C(=O)NS(=O)(=O)c2cccc(OCC3CCCCC3)n2)C(C)(C)C1 (stereo not shown) [Compound 1767, N—[[6-(cyclohexylmethoxy)-2-pyridyl]sulfonyl]-2-(2,2,4-trimethylpyrrolidin-1-yl)pyridine-3-carboxamide] | +++ (“+++” means <3 uM) |
| CCOc1cc(C)cc(-c2ccc(C(=O)NS(=O)(=O)c3ccc[nH]c3=O)c(Oc3c(C)cc(C)cc3C)n2)n1 [Compound 1768, 6-(6-ethoxy-4-methyl-2-pyridyl)-N-[(2-oxo-1H-pyridin-3-yl)sulfonyl]-2-(2,4,6-trimethylphenoxy)pyridine-3-carboxamide] | ++ (“++” means between 3 uM and 10 uM) |

More lines, now with the values ahead:

| EC30 | Structure (SMILES) |
| --- | --- |
| ++ (“++” means between 3 uM and 10 uM) | CC(Nc1ncccc1C(=O)NS(=O)(=O)c1cccc(N)n1)c1cccc2ccccc12 (stereo not shown) [Compound 1769, N-[(6-amino-2-pyridyl)sulfonyl]-2-[1-(1-naphthyl)ethylamino]pyridine-3-carboxamide] |
| +++ (“+++” means <3 uM) | CC1CN(c2ncccc2C(=O)NS(=O)(=O)c2cccc(NCc3cc(F)ccc3F)n2)C(C)(C)C1 (stereo not shown) [Compound 1770, N—[[6-[(2,5-difluorophenyl)methylamino]-2-pyridyl]sulfonyl]-2-(2,2,4-trimethylpyrrolidin-1-yl)pyridine-3-carboxamide] |
| +++ (“+++” means <3 uM) | Cc1cc(C)cc(-c2ccc(C(=O)NS(=O)(=O)c3cccc(N)n3)c(N3C[C@@H](C)CC3(C)C)n2)c1 [Compound 1771, N-[(6-amino-2-pyridyl)sulfonyl]-6-(3,5-dimethylphenyl)-2-[(4S)-2,2,4-trimethylpyrrolidin-1-yl]pyridine-3-carboxamide] |
| ++ (“++” means between 3 uM and 10 uM) | Cc1ccccc1C1CCCCCN1c1ncccc1C(=O)NS(=O)(=O)c1cccc(N)n1 (stereo not shown) [Compound 1772, N-[(6-amino-2-pyridyl)sulfonyl]-2-[2-(o-tolyl)azepan-1-yl]pyridine-3-carboxamide] |
| +++ (“+++” means <3 uM) | CC1CN(c2ncccc2C(=O)NS(=O)(=O)c2cccc(N3CCN(C(=O)OC(C)(C)C)CC3)n2)C(C)(C)C1 (stereo not shown) [Compound 1773, tert-butyl 4-[6-[[2-(2,2,4-trimethylpyrrolidin-1-yl)pyridine-3-carbonyl]sulfamoyl]-2-pyridyl]piperazine-1-carboxylate] |
| +++ (“+++” means <3 uM) | CC(C)Oc1ccc(-c2ccc(C(=O)NS(=O)(=O)c3ccc[nH]c3=O)c(N3C[C@@H](C)CC3(C)C)n2)cc1 [Compound 1774, 6-(4-isopropoxyphenyl)-N-[(2-oxo-1H-pyridin-3-yl)sulfonyl]-2-[(4S)-2,2,4-trimethylpyrrolidin-1-yl]pyridine-3-carboxamide] |
| +++ (“+++” means <3 uM) | CC1CN(c2ncccc2C(=O)NS(=O)(=O)c2cccc(Nc3ccc4ncsc4c3)n2)C(C)(C)C1 (stereo not shown) [Compound 1775, N—[[6-(1,3-benzothiazol-6-ylamino)-2-pyridyl]sulfonyl]-2-(2,24-trimethylpyrrolidin-1-yl)pyridine-3-carboxamide] |
| +++ (“+++” means <3 uM) | CC1CN(c2ncccc2C(=O)NS(=O)(=O)c2cccc(N3CCCC4CCCCC43)n2)C(C)(C)C1 (stereo not shown) [Compound 1776, N—[[6-(3,4,4a,5,6,7,8,8a-octahydro-2H-quinolin-1-yl)-2-pyridyl]sulfonyl]-2-(2,2,4-trimethylpyrrolidin-1-yl)pyridine-3-carboxamide] |
| +++ (“+++” means <3 uM) | CC1CN(c2ncccc2C(=O)NS(=O)(=O)c2cccc(OCc3cc(-c4ccccc4)on3)n2)C(C)(C)C1 (stereo not shown) [Compound 1777, N—[[6-[(5-phenylisoxazol-3-yl)methoxy]-2-pyridyl]sulfonyl]-2-(2,2,4-trimethylpyrrolidin-1-yl)pyridine-3-carboxamide] |
| +++ (“+++” means <3 uM) | COc1ccc(COc2cccc(S(=O)(=O)NC(=O)c3cccnc3N3CC(C)CC3(C)C)n2)cc1Cl (stereo not shown) [Compound 1778, N—[[6-[(3-chloro-4-methoxy-phenyl)methoxy]-2-pyridyl]sulfonyl]-2-(2,2,4-trimethylpyrrolidin-1-yl)pyridine-3-carboxamide] |
| +++ (“+++” means <3 uM) | COc1c(F)cccc1-c1ccc(C(=O)NS(=O)(=O)c2ccc[nH]c2=O)c(N2C[C@@H](C)CC2(C)C)n1 [Compound 1779, 6-(3-fluoro-2-methoxy-phenyl)-N-[(2-oxo-1H-pyridin-3-yl)sulfonyl]-2-[(4S)-2,2,4-trimethylpyrrolidin-1-yl]pyridine-3-carboxamide] |
| ++ (“++” means between 3 uM and 10 uM) | COc1cc(-c2ccc(C(=O)NS(=O)(=O)c3ccc[nH]c3=O)c(N3C[C@@H](C)CC3(C)C)n2)ccc1F [Compound 1780, 6-(4-fluoro-3-methoxy-phenyl)-N-[(2-oxo-1H-pyridin-3-yl)sulfonyl]-2-[(4S)-2,2,4-trimethylpyrrolidin-1-yl]pyridine-3-carboxamide] |
| +++ (“+++” means <3 uM) | C#Cc1cccc(Oc2cccc(S(=O)(=O)NC(=O)c3cccnc3N3CC(C)CC3(C)C)n2)c1 (stereo not shown) [Compound 1782, N—[[6-(3-ethynylphenoxy)-2-pyridyl]sulfonyl]-2-(2,2,4-trimethylpyrrolidin-1-yl)pyridine-3-carboxamide] |
| +++ (“+++” means <3 uM) | CCOCCOCCOc1ncc(-c2ccc(C(=O)NS(=O)(=O)c3cccnc3N)c(N3C[C@@H](C)CC3(C)C)n2)cc1C [Compound 1783, N-[(2-amino-3-pyridyl)sulfonyl]-6-[6-[2-(2-ethoxyethoxy)ethoxy]-5-methyl-3-pyridyl]-2-[(4S)-2,2,4-trimethylpyrrolidin-1-yl]pyridine-3-carboxamide] |
| +++ (“+++” means <3 uM) | C[C@@H]1CN(c2nc(-c3ccccc3Cl)ccc2C(=O)NS(=O)(=O)c2ccc[nH]c2=O)C(C)(C)C1 [Compound 1784, 6-(2-chlorophenyl)-N-[(2-oxo-1H-pyridin-3-yl)sulfonyl]-2-[(4S)-2,2,4-trimethylpyrrolidin-1-yl]pyridine-3-carboxamide] |
| +++ (“+++” means <3 uM) | C[C@@H]1CN(c2nc(-c3ccc(OC(F)(F)F)cc3)ccc2C(=O)NS(=O)(=O)c2cccc(N)n2)C(C)(C)C1 [Compound 1785, N-[(6-amino-2-pyridyl)sulfonyl]-6-[4-(trifluoromethoxy)phenyl]-2-[(4S)-2,2,4-trimethylpyrrolidin-1-yl]pyridine-3-carboxamide] |
